Experimental data taken from US10131652B2, “Pyrimidinyloxy benzene derivatives as herbicides” (E. I. DU PONT DE NEMOURS AND COMPANY, priority 2014, dated 2018).
Read-outs that look alike come from different tables or passages of the source.

Experiments:
Format in all cases: in vivo
[1] = system: corn (Zea mays); assay: Test B pre-/postemergence plant response; conditions: Zea mays, post-emergence, 240 h
Summary of the method: (§1)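 Visual injury scores on a 0–100 scale (100 = complete control) relative to untreated plants, taken about 10 days post-treatment in greenhouse. Treatments were a directed preemergence soil spray and a postemergence spray at one- to two-leaf stage, using surfactant-containing solvent formulation.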

[2] = system: barnyardgrass (Echinochloa crus-galli); assay: Test B pre-/postemergence plant response; conditions: for pest or weed control at 31 g/ha: 31 g ai/ha
Summary of the method: as §1

[3] = system: giant foxtail (Setaria faberii); assay: Test B pre-/postemergence plant response; conditions: for pest or weed control at 31 g/ha: 31 g ai/ha
Summary of the method: as §1

[4] = system: pigweed (Amaranthus retroflexus); assay: Test B pre-/postemergence plant response; conditions: for pest or weed control at 31 g/ha: 31 g ai/ha
Summary of the method: as §1

[5] = system: wheat (Triticum aestivum); assay: Test B pre-/postemergence plant response; conditions: Triticum aestivum, post-emergence, 240 h, read-out: Plant response rating, Wheat
Summary of the method: as §1

[6] = system: barnyardgrass (Echinochloa crus-galli); assay: Test C flooded paddy test plant response; conditions: Echinochloa crus-galli; Flood, 250 g ai/ha; scale of 0 to 100 where 0 is no effect and 100 is complete control; 13 to 15 days; read-out: Barnyardgrass plant response rating
Summary of the method: (§2)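 Greenhouse paddy assay, 13–15 days. Treatment into 3 cm floodwater over 2-leaf plants; visual 0–100 rating against controls.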

[7] = system: ducksalad (Heteranthera limosa); assay: Test C flooded paddy test plant response; conditions: Heteranthera limosa; Flood, 250 g ai/ha; scale of 0 to 100 where 0 is no effect and 100 is complete control; 13 to 15 days; read-out: Ducksalad plant response rating
Summary of the method: as §2

[8] = system: rice (Oryza sativa); assay: Test C flooded paddy test plant response; conditions: Oryza sativa; Flood, 250 g ai/ha; scale of 0 to 100 where 0 is no effect and 100 is complete control; 13 to 15 days; read-out: Rice plant response rating
Summary of the method: as §2

[9] = system: small-flower umbrella sedge (Cyperus difformis); assay: Test C flooded paddy test plant response; conditions: Cyperus difformis; Flood, 250 g ai/ha; scale of 0 to 100 where 0 is no effect and 100 is complete control; 13 to 15 days; read-out: Sedge, Umbrella plant response rating
Summary of the method: as §2

[10] = system: morningglory (Ipomoea coccinea); assay: Test D pre-/postemergence plant response; conditions: Ipomoea; for pest or weed control at 31 g/ha: 31 g ai/ha; for pest or weed control at 62 g/ha: 62 g ai/ha
Summary of the method: (§3)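 0 = no effect, 100 = complete control: plants were scored this way by visual comparison with controls 13 to 15 days post-treatment. Application was preemergence to sown loam/sand pots or postemergence to 2–18 cm seedlings in peat-based mix.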

[11] = system: johnsongrass (Sorghum halepense); assay: Test D pre-/postemergence plant response; conditions: Sorghum halepense; for pest or weed control at 31 g/ha: 31 g ai/ha; for pest or weed control at 62 g/ha: 62 g ai/ha; for pest or weed control at 125 g/ha: 125 g ai/ha
Summary of the method: as §3

[12] = 125 g ai/ha, postemergence, 0 to 100 scale, 0 no effect, 100 complete control
[13] = Postemergence, 31 g ai/ha, 0 to 100 scale (0 no effect, 100 complete control)
[14] = Preemergence, 125 g ai/ha, 0 to 100 scale (0 no effect, 100 complete control)
[15] = pre-emergence, Preemergence, scale 0 to 100 (0 no effect, 100 complete control), read-out: Plant response rating, Morningglory
[16] = post-emergence, Postemergence, scale 0 to 100, 0 no effect, 100 complete control, read-out: Plant response rating, Johnsongrass
[17] = pre-emergence, Preemergence, scale 0 to 100 (0 no effect, 100 complete control), read-out: Plant response rating, Johnsongrass

`Fc1cccc(Oc2ncc(Cl)cn2)c1-c1cc(C(F)F)no1` [Compound 144, 5-chloro-2-[2-[3-(difluoromethyl)-5-isoxazolyl]-3-fluorophenoxy]pyrimidine] was tested, and the Corn plant response rating (crop injury, 0 = no effect, 100 = complete kill) at 125 g/ha [1, 12] was 90%, the Corn plant response rating (crop injury, 0 = no effect, 100 = complete kill) at 31 g/ha [1, 13] was 30% and the pest or weed control at 125 g/ha ([2]; Echinochloa crus-galli, post-emergence, 240 h, 125 g ai/ha, postemergence, 0 to 100 scale, 0 no effect, 100 complete control, read-out: Plant response rating, Barnyardgrass) was 100%. The pest or weed control at 31 g/ha ([2]; Echinochloa crus-galli, post-emergence, 240 h, Postemergence, 0 to 100 scale (0 no effect, 100 complete control), read-out: Plant response rating, Barnyardgrass) was 30%, the pest or weed control at 31 g/ha ([2]; Echinochloa crus-galli, pre-emergence, 240 h, Preemergence, 0 to 100 scale where 0 is no effect and 100 is complete control, read-out: Plant response rating, Barnyardgrass) was 80% and the “Barnyardgrass plant response rating” value [2, 14] was 100. For the same compound, the “Foxtail, Giant plant response rating” value [3, 14] was 100, the pest or weed control at 125 g/ha ([3]; Setaria faberi, post-emergence, 240 h, 125 g ai/ha, postemergence, 0 to 100 scale, 0 no effect, 100 complete control, read-out: Plant response rating, Foxtail, Giant) was 100% and the pest or weed control at 31 g/ha ([3]; Setaria faberi, post-emergence, 240 h, Postemergence, 0 to 100 scale (0 no effect, 100 complete control), read-out: Plant response rating, Foxtail, Giant) was 80%. For the same compound, the pest or weed control at 31 g/ha ([3]; Setaria faberi, pre-emergence, 240 h, Preemergence, 0 to 100 scale where 0 is no effect and 100 is complete control, read-out: Plant response rating, Foxtail, Giant) was 100%, the pest or weed control at 125 g/ha ([4]; Amaranthus retroflexus, post-emergence, 240 h, 125 g ai/ha, postemergence, 0 to 100 scale, 0 no effect, 100 complete control, read-out: Plant response rating, Pigweed) was 100% and the pest or weed control at 31 g/ha ([4]; Amaranthus retroflexus, post-emergence, 240 h, Postemergence, 0 to 100 scale (0 no effect, 100 complete control), read-out: Plant response rating, Pigweed) was 100%. The pest or weed control at 31 g/ha ([4]; Amaranthus retroflexus, pre-emergence, 240 h, Preemergence, 0 to 100 scale where 0 is no effect and 100 is complete control, read-out: Plant response rating, Pigweed) was 100%, the “Pigweed plant response rating” value [4, 14] was 100 and the plant injury at 125 g/ha [5, 12] was 90%. For the same compound, the plant injury at 31 g/ha [5, 13] was 30%, the pest or weed control at 250 g/ha [6] was 98% and the pest or weed control at 250 g/ha [7] was 90%. For the same compound, the plant injury at 250 g/ha [8] was 40%, the pest or weed control at 250 g/ha [9] was 85% and the pest or weed control at 31 g/ha ([10]; post-emergence, Postemergence, scale 0 to 100 (0 no effect, 100 complete control), read-out: Morningglory plant response rating) was 85%. For the same compound, the pest or weed control at 62 g/ha ([10]; post-emergence, Postemergence, scale 0 to 100, 0 no effect, 100 complete control, read-out: Plant response rating, Morningglory) was 85%, the pest or weed control at 125 g/ha ([10]; pre-emergence, Preemergence, 125 g ai/ha, read-out: Plant response rating (scale 0 to 100), Morningglory) was 100% and the pest or weed control at 16 g/ha ([10]; pre-emergence, Preemergence, 16 g ai/ha, scale 0 to 100 (0 no effect, 100 complete control), read-out: Plant response rating, Morningglory) was 20%. For the same compound, the pest or weed control at 31 g/ha [10, 15] was 75%, the pest or weed control at 62 g/ha [10, 15] was 100% and the pest or weed control at 31 g/ha ([11]; post-emergence, Postemergence, scale 0 to 100 (0 no effect, 100 complete control), read-out: Johnsongrass plant response rating) was 10%. It also gave a pest or weed control at 62 g/ha [11, 16] of 10%, a pest or weed control at 125 g/ha [11, 16] of 50% and a pest or weed control at 125 g/ha ([11]; pre-emergence, Preemergence, read-out: Plant response rating (scale 0 to 100), Johnsongrass) of 100%. The pest or weed control at 16 g/ha ([11]; pre-emergence, Preemergence, 16 g ai/ha, scale 0 to 100 (0 no effect, 100 complete control), read-out: Plant response rating, Johnsongrass) was 20%, the pest or weed control at 31 g/ha [11, 17] was 75% and the pest or weed control at 62 g/ha [11, 17] was 100%.
